Earlier results in paper PMC6442678 (Journal of medicinal chemistry, 2018).

Conditions: mice, 24h after injection ref 52

In the case of Mn-EDTA-BTA, the “injected Mn retained” value is given as over 50%.
